Data: patent US6777431B2, “Non-convalent thrombin inhibitors” (Corvas International, Inc., priority 2001, dated 2004)

These compounds were tested against T1, Trypsin (Bos taurus, UniProt P00760) (assay: Trypsin chromogenic substrate assay (S-2222)). Conditions: bovine pancreatic trypsin 0.5 nM, S-2222 250 μM, HBSA pH 7.5.
T1 construct: Purified (3×-crystallized; TRL3) bovine pancreatic trypsin was obtained from Worthington Biochemical Corp; purchased Worthington Biochemical Corp. TRL3; host or cells: bovine pancreas
T1 sequence (P00760 24-246): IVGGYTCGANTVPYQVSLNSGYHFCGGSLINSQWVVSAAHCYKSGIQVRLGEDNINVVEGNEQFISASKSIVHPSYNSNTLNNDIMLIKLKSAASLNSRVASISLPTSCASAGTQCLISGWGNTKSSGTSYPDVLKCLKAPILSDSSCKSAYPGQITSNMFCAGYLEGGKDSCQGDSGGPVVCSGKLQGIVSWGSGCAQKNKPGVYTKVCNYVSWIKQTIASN
Type: biochemical
Method: (§1) The ability of compounds of the present invention to act as a selective inhibitor of thrombin activity was assessed by determining the concentration of test-compound which inhibited the activity of this enzyme by 50%, (IC50) or by determining the Ki value, and comparing this value to that determined for all or some of the following related serine proteases: recombinant tissue plasminogen activator (rt-PA), plasmin, activated protein C, chymotrypsin, factor Xa and trypsin. Ki is calculated from the IC50.
(§2) The buffer used for all assays was HBSA (10 mM HEPES, pH 7.5, 150 mM sodium chloride, 0.1% bovine serum albumin).
The assay for IC50 or Ki determinations was conducted by combining in appropriate wells of a Corning microtiter plate, 50 microliters of HBSA, 50 microliters of the test compound at a specified concentration (covering a broad concentration range) diluted in HBSA (or HBSA alone for V0 (uninhibited velocity) measurement), and 50 microliters of the enzyme diluted in HBSA. […] The initial velocity of chromogenic substrate hydrolysis was measured by the change in absorbance at 405 nm using a Thermo Max® Kinetic Microplate Reader over a 5 minute period in which less than 5% of the added substrate was utilized. […] Ki may be calculated from the IC50 value. […]
Work on `Cc1ccc(NS(=O)(=O)Cc2ccccc2)c(=O)n1CCCNc1ccncc1` [A] yielded an IC50 of 300 to 2500 nM.

The compounds below were run against Thrombin (Homo sapiens, UniProt P00734) (assay: Thrombin (fIIa) chromogenic substrate assay (Pefachrome t-PA)). Conditions: human a-thrombin 0.5 nM, Pefachrome t-PA 250 μM, 30 min preincubation, HBSA pH 7.5; Ki calculated from the IC50.
Type: biochemical
Method: as §1, §2
The assay for IC50 or Ki determinations was conducted by combining in appropriate wells of a Corning microtiter plate, 50 microliters of HBSA, 50 microliters of the test compound at a specified concentration (covering a broad concentration range) diluted in HBSA (or HBSA alone for V0 (uninhibited velocity) measurement), and 50 microliters of the enzyme diluted in HBSA. Following a 30 minute incubation at ambient temperature, 50 microliters of the substrate at the concentrations specified below were added to the wells, yielding a final total volume of 200 microliters. The initial velocity of chromogenic substrate hydrolysis was measured by the change in absorbance at 405 nm using a Thermo Max® Kinetic Microplate Reader over a 5 minute period in which less than 5% of the added substrate was utilized. The concentration of added inhibitor which caused a 50% decrease in the initial rate of hydrolysis was defined as the IC50 value. Ki may be calculated from the IC50 value.
Enzyme activity was determined using the chromogenic substrate, Pefachrome t-PA (CH3SO2-D-hexahydrotyrosine-glycyl-L-Arginine-p-nitroaniline, obtained from Pentapharm Ltd.). The substrate was reconstituted in deionized water prior to use.
The initial velocity of Pefachrome t-PA hydrolysis was measured by the change in absorbance at 405 nm using a Thermo Max® Kinetic Microplate Reader over a 5 minute period in which less than 5% of the added substrate was utilized. The concentration of added inhibitor which caused a 50% decrease in the initial rate of hydrolysis was defined as the IC50 value. Ki was calculated from the IC50 value.
`Cc1ccc(NS(=O)(=O)Cc2ccccc2)c(=O)n1CCCNc1ccc2ncccc2c1` [H] showed a Ki of at most 100 nM. `Cc1ccc(NS(=O)(=O)Cc2ccccc2)c(=O)n1CCCn1ncc2ccc(N)cc21` [Q] gave a Ki of 300 to 2500 nM. Compound `Cc1cnc(NCC(F)(F)c2ccccc2)c(=O)n1CCNc1ccncc1` [B] has a Ki of at most 100 nM. In the case of `Cc1cnc(NCCCc2ccccc2)c(=O)n1CCCNc1ccncc1` [O], the Ki is reported as 100 to 300 nM. For `Cc1ccc(NS(=O)(=O)Cc2ccc(Cl)cc2)c(=O)n1CCCNc1ccncc1` [F], the Ki was at most 100 nM. For `Cc1cnc(NCC(F)(F)c2ccccc2)c(=O)n1CCCNc1ccncc1` [C], the Ki was at most 100 nM. For `Cc1ccc(NS(=O)(=O)Cc2ccccc2)c(=O)n1CCCNc1cccc2ncccc12` [P], the Ki was 100 to 300 nM. `Cc1ccc(NS(=O)(=O)Cc2ccccc2)c(=O)n1CCCN(C)c1ccncc1` [E] showed a Ki of at most 100 nM. For `Cc1ccc(NS(=O)(=O)Cc2ccccc2)c(=O)n1CCCNc1ccncc1F` [J], the Ki was at most 100 nM. Work on `Cc1ccc(NS(=O)(=O)Cc2ccccc2)c(=O)n1CCCNc1ccncn1` [M] yielded a Ki of at most 100 nM. For `Cc1ccc(NS(=O)(=O)Cc2ccccc2)c(=O)n1CCCNc1ccc(N)nc1` [N], the Ki was 100 to 300 nM. For `Cc1ccc(NS(=O)(=O)Cc2ccc(Cl)cc2)c(=O)n1CCCNc1ccncc1F` [K], the Ki was at most 100 nM. `Cc1cnc(NCCc2ccccc2)c(=O)n1CCCNc1ccncc1` [D] was tested, and the Ki was 100 to 300 nM. In the case of `Cc1ccc(NS(=O)(=O)Cc2ccccc2)c(=O)n1CCCNc1ncnc2[nH]cnc12` [G], the Ki is reported as 100 to 300 nM. With `Cc1ccc(NS(=O)(=O)Cc2ccccc2)c(=O)n1CCCNc1ccnc2ccccc12` [L] the Ki was at most 100 nM. With `Cc1ccc(NS(=O)(=O)Cc2ccccc2)c(=O)n1CCCNc1ccc2cc[nH]c2c1` [I] the Ki was at most 100 nM. Work on `Cc1ccc(NS(=O)(=O)Cc2ccccc2)c(=O)n1CCCNc1cccc(N)n1` [R] yielded a Ki of 300 to 2500 nM. `Cc1ccc(NS(=O)(=O)Cc2ccccc2)c(=O)n1CCCNc1ccncc1` [A] was tested, and the Ki was at most 100 nM.
